Experiment [1] deals with calcium chloride-induced arrhythmias. The experiment can be described thus: Calcium chloride test (antiarrhythmic). It counts as in vivo, rat. The following applies: for ED50: iv, read-out: ED50, Calcium chloride, rat. The source says:
(§1) These compounds were first selected owing to their activity in different experimental arrhythmia models which are used as screening techniques. So the chloroform, aconitine and calcium chloride tests have been used for testing the compounds of the invention as described by J. W. Lawson, J.Pharmacol.exp.Ther. 160, 22-81 (1968) "Antiarrhythmic activity of some isoquinoline derivatives determined by a rapid screening procedure in the mouse".
Cardiac arrhythmia frequently occurs when the levels of serum ions are abnormal, particularly when the calcium level is four times higher than the normal concentration. This is the reason why intravenous administraction of high doses of calcium chloride can elicit the development of dysrhythmias in animals.
In the anaesthetized rat the rapid intravenous injection of calcium chloride causes lethal ventricular fibrillation or ventricular extrasystoles. The evaluation of the activity of the test compound aministered prior to the calcium chloride injection is based on the onset of arrhythmia (M. R. Malinow et al., Arch.int. Pharmacodyn. 102, 55-64 (1955), "The pharmacology of experimental ventricular arrhythmias in the rat I. Antihistamic drugs") or return to sinus rhythm after occasional trouble of rhythm (M. Fekete et al., Med. Exp. 10, 93-102 (1964), "On the antiarrhythmic effect of some thymoleptics: amitriptyline, imipramine, trimepropimine and desmethylimipramine").

Experiment [2] concerns ventricular fibrillation induced by chloroform. Put plainly: Chloroform test (antiarrhythmic). The class given is in vivo. To be noted: iv, read-out: ED50, Chloroform, mouse (dose which protects 50% of the mice against ventricular fibrillation induced by chloroform). As to the method: Five minutes after i.v. injection of the compound under study the mice are placed into a 300 ml beaker containing cotton wool soaked with 20 ml of chloroform. The animals are watched carefully and taken out of the beaker as soon as the second respiratory arrest occured. The heart is then quickly exposed to visual inspection of ventricular rhythm (see Lawson, Loc.cit.).

Experiment [3] relates to aconitine-induced arrhythmias. The experiment can be described thus: Aconitine test (antiarrhythmic). It counts as in vivo, rat. To be noted: for ED50: Rattus norvegicus, read-out: ED50, Aconitine, rat.
Description: as §1
It seems that investigators favour the rat so as to study the protective effect of a compound on arrhythmia induced by aconitine (see: J. L. Junien et al., Arzneim.Forsch. 24, 1743-1747 (1974); L. Szekeres et al., Experimental cardiac arrhythmias and antiarrhythmic drugs, Publishing House of the Hungarian Academy of Sciences (Akademia Kiado), Budapest (1971); M. R. Malinow et al., Arch.int.Pharmacodyn. 102, 55-64 (1955); C. Bianchi et al., Arzneim. Forsch. 18, 845-850 (1968); B. B. Vargaftig et al., J. Pharm. Pharmacol. 27, 697-699 (1975); and M. Fekete et al., Med Exp. 10, 93-102 (1964)).
Test compounds are administered to the urethane-anaesthetized rat prior to the injection of aconitine. Various antiarrhythmic drugs are capable of delaying the onset of aconitine-induced arrhythmias and this model of arrhythmia seems to be suitable for assaying the antiarrhythmic acitivity.

Like-named read-outs stand apart in the source and are kept apart here.

For `CCCCNCC(O)COc1ccsc1C(=O)CCc1ccccc1.OCl` (centres unmarked) [LG 80-6-00, 1-[3-(2-hydroxy-3-n-butylaminopropoxy)-2-thienyl]-3-phenyl-1-propanone-chlorohydrate], the ED50 in experiment [1] (Rattus norvegicus) worked out at 5.04 mg/kg; in experiment [2] (Mus musculus), 4.16 mg/kg; in experiment [3] it was 4.23 mg/kg.
On to `CCCNCC(O)COc1c(C)csc1C(=O)CCc1ccccc1.OCl` (centres unmarked) [LG 80-6-01, 1-[4-methyl-3-(2-hydroxy-3-n-propylaminopropoxy)-2-thienyl]-3-phenyl-1-propanone-chlorohydrate], for which the ED50 in experiment [1] (Rattus norvegicus) is 2.59 mg/kg; in experiment [2] (Mus musculus), 3.57 mg/kg; in experiment [3] it was 1.49 mg/kg. For the same compound, the “protection against arrhythmias induced by calcium chloride” value in experiment [1] (rat) was “best protection against arrhythmias induced by calcium chloride”. Moreover, the “ranking in the aconitine test” value in experiment [3] (rat, compared by ED50) is recorded as “best compound in this method”.
On to `CCCNCC(O)COc1cc(C)sc1C(=O)CCc1ccccc1.OCl` (centres unmarked) [LG 80-6-02, 1-[5-methyl-3-(2-hydroxy-3-n-propylaminopropoxy)-2-thienyl]-3-phenyl-1-propanone-chlorohydrate], for which the values for the ED50 in experiment [1] (Rattus norvegicus), in experiment [2] (Mus musculus) and in experiment [3] were 2.87 mg/kg, 17.6 mg/kg and 22.8 mg/kg, respectively.
In the case of `CCCNCC(O)COc1ccccc1C(=O)CCc1ccccc1` (centres unmarked) [Propafenon, Propafenone, reference compound], the ED50 in experiment [1] (anaesthetized rat, compound given prior to i.v. calcium chloride) came out at 4.49 mg/kg; in experiment [2] (mouse, i.v., 5 minutes before chloroform) it was 3.45 mg/kg; in experiment [3] it was 2.1 mg/kg.

(Values after patent US4352819A (priority 1980, dated 1982).)
